Data reported in patent US20080286215A1, “Method of Preventing Oral Staining” (priority 2005, published 2008).
Like-named read-outs stand apart in the source and are kept apart here.

Key:
[1] = seven-day twice-daily mouthwash swilling, staining of teeth and tongue; type: in vivo; conditions: 0.2% mouthwash swilled twice daily for seven days
Description: FIG. 1 panel B illustrates staining of the teeth caused when contacted over a seven-day period with Chlorhexidine 0.2% twice daily for one minute (panel A is a control showing seven days rinsing with Delmopinol 0.2% twice daily 10 ml for one minute);
FIG. 2 panel B illustrates staining of the tongue when contacted over a seven day period with Chlorhexidine 0.2% twice daily for one minute (panel A is a control showing seven days rinsing with Delmopinol 0.2% twice daily 10 ml for one minute); and
A subject swilled their mouth twice daily with a 0.2% chlorhexidine mouthwash for seven days.
As a separate control, the subject swilled their mouth twice daily with a 0.2% delmopinol mouthwash for seven days.

[2] = prolonged use, some subjects, noticed by dentists in some studies; cited from earlier work
[3] = removal of chlorhexidine staining by a single one-minute brushing of the teeth; type: in vivo; conditions: subject with staining after seven days of chlorhexidine, brushed once, toothbrush soaked in 0.2% mouthwash
Source text: FIG. 3 illustrates the removal of Chlorhexidine stains seen in FIG. 1(B) by brushing the teeth for one minute with a toothbrush that has been soaked in 0.2% delmopinol. The subject with chlorhexidine staining (after the seven day usage of chlorhexidine) brushed their teeth once, for one minute, using a toothbrush soaked in a 0.2% delmopinol mouthwash.

Compound	staining of the teeth [1]	staining of the tongue [1]	staining of the teeth [2]	removal of chlorhexidine staining of the teeth [3]
[H]/N=C(\N/C(=N/[H])NCCCCCCNC(=N)NC(=N)Nc1ccc(Cl)cc1)Nc1ccc(Cl)cc1 [chlorhexidine, reference compound]	characteristic staining of the teeth	the tongue was also stained	–	–
CCCC(CCC)CCCC1COCCN1CCO (stereo not drawn) [delmopinol, 3-(4-propyl-heptyl)-4-(2-hydroxyethyl)morpholine]	No staining was observed	No staining was observed	mild staining of the teeth	removed the staining of the teeth
